Where two headings read alike, the source gives them in different places.

The subject of assay [1] is Huh-7 cells, genotype 1b HCV replicon. Kind of assay: Inhibition of HCV replication in cell culture, genotype 1b replicon. It counts as cell-based, hepatitis C virus. Particulars: for EC50: Huh-7, genotype 1b replicon, intracellular HCV RNA 24 h after 3 daily doses; for Selectivity Index (CC50/EC50): genotype 1b replicon, CC50 by neutral red uptake. On the procedure: (§1) Test compounds were solubilized at 30 mM in 100% tissue culture grade DMSO (Sigma, Inc.). Aliquots of test compounds sufficient for one daily treatment were made in individual tubes and all material was stored at −20° C. On each day of treatment, daily aliquots of the test compounds were suspended in culture medium at room temperature and immediately added to the cell cultures. Compounds were added to dividing cultures once daily for three days at concentrations ranging from about 30 μM to about 0.0003 μM. Media was changed with each addition of compound. The assays were started when cell cultures were at about 30-50% confluence, and the cells reached confluence during the last day of treatment. The assays included untreated control cultures (six total), and triplicate cultures treated with α-interferon and ribavirin as positive antiviral and toxicity controls.
(§2) Intracellular HCV RNA levels and cytotoxicity were assessed in triplicate 24 hours after the last compound dose.

Assay [2] relates to Huh-7 cells, sub-genomic genotype 1a HCV replicon H/SG-Neo. Kind of assay: Inhibition of HCV replication in cell culture, genotype 1a replicon. It counts as cell-based, hepatitis C virus. As to conditions: for EC50: Huh-7, genotype 1a replicon, intracellular HCV RNA 24 h after 3 daily doses; for Selectivity Index (CC50/EC50): genotype 1a replicon, CC50 by neutral red uptake. The protocol: as §1, §2

The target of a further assay is HCV RdRp (NS5B) (UniProt P26663). The class given is biochemical, hepatitis C virus.
The target of assay [3] is T1, NS5B (Replizyme, UK), HCV genotype 1b Δ21 RdRp (UniProt P26663).
T1 construct: other: Replizyme enzyme
The class given is biochemical, hepatitis C virus. The protocol:
(§3) An RNA-dependant RNA polymerase assay was performed in a 96-well round bottom polypropylene plates (Costar) with a 50 μl reaction volume containing 20 mM HEPES pH 7.2-7.5 (Gibco), 1 mM DTT (Sigma), 0.4 mM MnCl2 (Sigma), 70 nM RNA template-primer PolyA (Amersham)-Oligo dT(20) biotin labelled (Roche), 20 μM UTP (Roche), 5U RNasin (Promega), 50 mM NaCl (Ambion), 4 μM DIG-11-UTP (Roche), test compound at desired concentration, 5% DMSO and 50-80 ng NS5B (Replizyme(V, UK) or 200-500 ng of recombinant NS5BA21 HCV RdRp enzyme. After 1 hour incubation at 30° C, the reaction is stopped by the addition of 5 μl 0.5 M EDTA and the solution is transferred to a streptavidin coated 96 well plate (Roche). Standard ELISA detection using Anti DIG-POD antibody (Roche) and BM Blue substrate is applied before measuring Abs at 450 nm. An illustration of the assay can be found in FIG. 1.

For assay [4], the target named is recombinant NS5BΔ21 HCV RdRp enzyme (genotype 1b, produced in-house) (UniProt P26663). Description: RdRp assay with ELISA, recombinant in-house enzyme. As to conditions: read-out: Experimental IC50, Recombinant. The class given is biochemical, hepatitis C virus. The protocol: as §3
A further assay deals with T2, HCV RdRp (Hepatitis C virus genotype 1b, UniProt P26663).
T2 construct: The HCV encoded RNA-dependent RNA polymerase (HCV RdRp), also known as non-structural protein 5B (NS 5B)
As to conditions: literature value; read-out: Published IC50; cited from earlier work.

Assay [5] deals with NS5B (Replizyme, UK), HCV genotype 1b Δ21 RdRp. It counts as biochemical, hepatitis C virus. On the procedure: as §3
Setting [6] is: Hepatitis C virus, Huh-7, 24 h, read-out: EC50.
[7] abbreviates: read-out: Experimental IC50, Replizyme; Replizyme enzyme.

Sequence of HCV RdRp (NS5B) (P26663 whole entry, looked up): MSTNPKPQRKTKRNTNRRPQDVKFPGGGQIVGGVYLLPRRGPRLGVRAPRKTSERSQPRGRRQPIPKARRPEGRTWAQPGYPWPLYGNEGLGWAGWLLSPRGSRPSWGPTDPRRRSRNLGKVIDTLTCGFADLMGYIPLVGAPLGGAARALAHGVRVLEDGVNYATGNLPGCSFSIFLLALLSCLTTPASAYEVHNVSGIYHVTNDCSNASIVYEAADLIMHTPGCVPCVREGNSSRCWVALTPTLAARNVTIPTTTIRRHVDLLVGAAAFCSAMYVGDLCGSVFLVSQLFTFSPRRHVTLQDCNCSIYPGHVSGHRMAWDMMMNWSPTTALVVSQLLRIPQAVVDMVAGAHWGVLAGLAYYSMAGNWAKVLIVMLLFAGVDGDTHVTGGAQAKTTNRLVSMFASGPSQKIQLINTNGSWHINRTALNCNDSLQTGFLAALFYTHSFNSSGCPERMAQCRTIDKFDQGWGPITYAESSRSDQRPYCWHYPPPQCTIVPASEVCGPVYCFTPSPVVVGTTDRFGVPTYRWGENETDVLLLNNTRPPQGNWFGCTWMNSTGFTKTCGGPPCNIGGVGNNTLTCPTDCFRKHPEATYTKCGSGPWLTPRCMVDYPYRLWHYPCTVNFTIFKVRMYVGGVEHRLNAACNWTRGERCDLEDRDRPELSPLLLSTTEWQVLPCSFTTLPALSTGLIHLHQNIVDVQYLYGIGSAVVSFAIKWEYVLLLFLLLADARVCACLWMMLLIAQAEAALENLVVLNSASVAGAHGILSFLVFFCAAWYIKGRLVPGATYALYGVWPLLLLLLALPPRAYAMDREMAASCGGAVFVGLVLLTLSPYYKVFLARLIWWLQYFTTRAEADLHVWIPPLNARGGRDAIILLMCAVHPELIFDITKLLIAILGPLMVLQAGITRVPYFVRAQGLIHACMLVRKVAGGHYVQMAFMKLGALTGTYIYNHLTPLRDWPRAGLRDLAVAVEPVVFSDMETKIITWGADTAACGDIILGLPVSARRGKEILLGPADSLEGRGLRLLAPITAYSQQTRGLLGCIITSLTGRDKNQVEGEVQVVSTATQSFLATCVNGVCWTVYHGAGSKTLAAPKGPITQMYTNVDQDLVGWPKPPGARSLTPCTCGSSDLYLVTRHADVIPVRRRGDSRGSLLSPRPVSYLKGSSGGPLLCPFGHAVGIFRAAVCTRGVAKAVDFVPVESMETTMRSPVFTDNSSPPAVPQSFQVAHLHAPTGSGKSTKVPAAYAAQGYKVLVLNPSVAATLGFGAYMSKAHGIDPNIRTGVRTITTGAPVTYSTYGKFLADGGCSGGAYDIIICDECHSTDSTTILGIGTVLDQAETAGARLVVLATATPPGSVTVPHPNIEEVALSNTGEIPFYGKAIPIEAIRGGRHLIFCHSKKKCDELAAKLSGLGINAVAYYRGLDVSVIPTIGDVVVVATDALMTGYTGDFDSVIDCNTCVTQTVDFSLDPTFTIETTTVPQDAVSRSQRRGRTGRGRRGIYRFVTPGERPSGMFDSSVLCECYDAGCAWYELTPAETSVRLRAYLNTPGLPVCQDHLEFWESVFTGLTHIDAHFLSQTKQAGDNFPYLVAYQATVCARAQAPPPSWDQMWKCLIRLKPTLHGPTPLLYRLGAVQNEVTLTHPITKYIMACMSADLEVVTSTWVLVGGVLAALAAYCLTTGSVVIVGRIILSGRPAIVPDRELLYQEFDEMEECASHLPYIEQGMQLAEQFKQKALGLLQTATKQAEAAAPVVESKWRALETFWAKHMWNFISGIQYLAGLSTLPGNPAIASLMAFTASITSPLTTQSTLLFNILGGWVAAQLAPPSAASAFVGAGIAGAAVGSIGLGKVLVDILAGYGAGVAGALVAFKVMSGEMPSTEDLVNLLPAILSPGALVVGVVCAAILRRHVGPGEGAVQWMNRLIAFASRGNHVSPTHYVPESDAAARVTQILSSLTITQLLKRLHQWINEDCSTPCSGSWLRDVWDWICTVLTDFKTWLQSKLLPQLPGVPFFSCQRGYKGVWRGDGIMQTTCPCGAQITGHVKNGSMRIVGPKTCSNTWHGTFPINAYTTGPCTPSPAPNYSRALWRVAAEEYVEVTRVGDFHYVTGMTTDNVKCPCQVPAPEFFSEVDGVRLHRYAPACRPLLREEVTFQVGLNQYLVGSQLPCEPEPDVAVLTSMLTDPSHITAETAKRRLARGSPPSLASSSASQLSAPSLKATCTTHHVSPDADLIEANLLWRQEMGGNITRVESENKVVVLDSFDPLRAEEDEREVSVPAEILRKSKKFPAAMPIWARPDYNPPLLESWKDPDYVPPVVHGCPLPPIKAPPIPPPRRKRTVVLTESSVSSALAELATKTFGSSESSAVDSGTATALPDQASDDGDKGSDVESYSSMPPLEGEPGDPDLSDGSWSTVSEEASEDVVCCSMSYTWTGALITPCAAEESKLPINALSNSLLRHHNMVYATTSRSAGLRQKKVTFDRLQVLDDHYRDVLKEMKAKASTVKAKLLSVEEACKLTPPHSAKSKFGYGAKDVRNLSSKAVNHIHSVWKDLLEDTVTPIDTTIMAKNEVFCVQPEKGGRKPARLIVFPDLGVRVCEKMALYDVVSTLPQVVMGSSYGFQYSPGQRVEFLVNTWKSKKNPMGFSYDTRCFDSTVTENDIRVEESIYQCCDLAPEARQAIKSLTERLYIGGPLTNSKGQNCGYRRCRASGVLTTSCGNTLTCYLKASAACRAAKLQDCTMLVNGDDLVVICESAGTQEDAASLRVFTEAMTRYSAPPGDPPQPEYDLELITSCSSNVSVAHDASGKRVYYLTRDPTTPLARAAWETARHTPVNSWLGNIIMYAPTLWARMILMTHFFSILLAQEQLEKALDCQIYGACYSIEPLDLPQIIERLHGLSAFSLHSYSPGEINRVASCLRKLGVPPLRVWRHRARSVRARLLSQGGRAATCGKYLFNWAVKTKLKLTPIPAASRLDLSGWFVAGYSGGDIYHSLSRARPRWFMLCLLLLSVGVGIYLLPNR
T2 sequence (P26663 2420-3010): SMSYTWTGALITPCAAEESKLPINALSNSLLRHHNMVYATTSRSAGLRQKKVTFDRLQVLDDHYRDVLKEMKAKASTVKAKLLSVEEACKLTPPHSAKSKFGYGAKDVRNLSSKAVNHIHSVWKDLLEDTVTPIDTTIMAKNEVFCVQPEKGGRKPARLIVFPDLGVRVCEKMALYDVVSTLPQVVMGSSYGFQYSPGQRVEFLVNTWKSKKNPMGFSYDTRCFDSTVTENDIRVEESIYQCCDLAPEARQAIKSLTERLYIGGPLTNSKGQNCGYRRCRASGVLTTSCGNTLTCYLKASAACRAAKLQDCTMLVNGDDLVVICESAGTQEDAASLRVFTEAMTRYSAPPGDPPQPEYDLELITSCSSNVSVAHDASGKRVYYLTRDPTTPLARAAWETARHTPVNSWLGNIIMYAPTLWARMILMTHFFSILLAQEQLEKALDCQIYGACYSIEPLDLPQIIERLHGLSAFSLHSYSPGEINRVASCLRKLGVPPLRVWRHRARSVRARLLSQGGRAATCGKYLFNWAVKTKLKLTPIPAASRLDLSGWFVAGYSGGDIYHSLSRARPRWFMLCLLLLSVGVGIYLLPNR

Consider `Cc1ccc(NC(=O)[C@H](CCCCN)NC(=O)Nc2ccc(OCc3ccccc3)cc2)cc1` [Compound 2, (S)-6-AMINO-2-[3-(4-BENZYLOXY-PHENYL)-UREIDO]-HEXANOIC ACID P-TOLYLAMIDE], for which the EC50 in assay [1] (setting [6]) and in assay [2] (Hepatitis C virus) was under 500 nM in each case. Moreover, the “Selectivity Index (CC50/EC50)” value was over 100 in assay [1] and 20 to 100 in assay [2]. For the same compound, the IC50 at HCV RdRp (NS5B) is 10000 to 50000 nM.

In the case of `CC(C)Cn1c(=O)c(C2=Nc3ccccc3S(=O)(=O)N2)c(O)c2ccccc21`, the figures for the IC50 (in assay [3] (setting [7]); in assay [4]; at HCV RdRp) were 2300 nM, 2800 nM and 340 nM, respectively.

Turning to `O=c1ccn([C@@H]2O[C@H](COP(=O)(O)OP(=O)(O)OP(=O)(O)O)C[C@H]2O)c(=O)[nH]1` [3′-dUTP], in assay [3] (Replizyme enzyme; read-out: Experimental IC50, Replizyme), the IC50 was found to be 130 nM.

For the compound `Cc1cc2cc(NC(=O)[C@H](CCCNC(=O)CN)NC(=O)Nc3ccc4c(c3)Cc3ccccc3-4)ccc2[nH]1` [Compound 297, (S)-5-(2-AMINO-ACETYLAMINO)-2-[3-(9H-FLUOREN-2-YL)-UREIDO]-PENTANOIC ACID (2-METHYL-1H-INDOL-5-YL)-AMIDE], the EC50 in assay [1] (setting [6]) and in assay [2] (Hepatitis C virus) was under 500 nM in each case. For the same compound, the “Selectivity Index (CC50/EC50)” value in assay [1] and in assay [2] was over 100 each time. On HCV RdRp (NS5B), the IC50 was under 10000 nM.

In the case of `Cc1ccc(NC(=O)[C@@H](CCCCN)NC(=O)Nc2ccc(OCc3ccccc3)cc2)cc1` [Compound 172, (R)-6-AMINO-2-[3-(4-BENZYLOXY-PHENYL)-UREIDO]-HEXANOIC ACID P-TOLYLAMIDE], the EC50 was 500 to 2000 nM in assay [1] (setting [6]) and under 500 nM in assay [2] (Hepatitis C virus). Moreover, the figures for the “Selectivity Index (CC50/EC50)” value in assay [1] and in assay [2] were under 20 and 20 to 100, respectively. The compound further registered an IC50 against HCV RdRp (NS5B) of 10000 to 50000 nM.

In the case of `Cc1cc2cc(NC(=O)[C@H](CCCCN)NC(=O)Nc3ccc(OCc4ccccc4)cc3)ccc2[nH]1` [Compound 206, (S)-6-AMINO-2-[3-(4-BENZYLOXY-PHENYL)-UREIDO]-HEXANOIC ACID (2-METHYL-1H-INDOL-5-YL)-AMIDE], the EC50 in assay [1] (setting [6]) and in assay [2] (Hepatitis C virus) was over 2000 nM each time. Also, the “Selectivity Index (CC50/EC50)” value in assay [1] and in assay [2] was under 20 each time. Also, the IC50 on HCV RdRp (NS5B) was 10000 to 50000 nM.

Turning to `Cc1ccc(NC(=O)C(CNC(=O)CN)NC(=O)Nc2ccc(OCc3ccccc3)cc2)cc1` [Compound 268, (S)-3-(2-AMINO-ACETYLAMINO)-2-[3-(4-BENZYLOXY-PHENYL)-UREIDO]-N-P-TOLYL-PROPIONAMIDE], in assay [1] (setting [6]), the EC50 is over 2000 nM. Besides, the “Selectivity Index (CC50/EC50)” value in assay [1] is given as under 20. At HCV RdRp (NS5B), this compound gave an IC50 of 10000 to 50000 nM.

As to `Cc1ccc(NC(=O)C(Cc2ccc(CN)cc2)NC(=O)Nc2ccc(OCc3ccccc3)cc2)cc1` [Compound 146, (S)-3-(4-AMINOMETHYL-PHENYL)-2-[3-(4-BENZYLOXY-PHENYL)-UREIDO]-N-P-TOLYL-PROPIONAMIDE], the EC50 in assay [1] (setting [6]) is under 500 nM. Also, the “Selectivity Index (CC50/EC50)” value in assay [1] is given as 20 to 100. In addition, the IC50 against HCV RdRp (NS5B) was under 10000 nM.

As to `Cc1ccc(NC(=O)[C@H](CCCCN)NC(=O)Nc2ccc3c(c2)Cc2ccccc2-3)cc1` [Compound 125, (S)-6-AMINO-2-[3-(9H-FLUOREN-2-YL)-UREIDO]-HEXANOIC ACID P-TOLYLAMIDE], the EC50 in assay [1] (read-out: EC50) is over 2000 nM. The “Selectivity Index (CC50/EC50)” value in assay [1] is given as under 20. Besides, the IC50 on HCV RdRp (NS5B) was under 10000 nM.

As for `NCCCC[C@H](NC(=O)Nc1ccc(OCc2ccccc2)cc1)C(=O)Nc1ccc(C2CCCCC2)cc1` [Compound 117, (S)-6-AMINO-2-[3-(4-BENZYLOXY-PHENYL)-UREIDO]-HEXANOIC ACID (4-CYCLOHEXYL-PHENYL)-AMIDE], the EC50 in assay [1] (setting [6]) was over 2000 nM. For the same compound, in assay [1], the “Selectivity Index (CC50/EC50)” value is under 20. For the same compound, on HCV RdRp (NS5B), the IC50 was under 10000 nM.

On to `Cc1ccc(NC(=O)[C@H](CCCCN)NCc2ccc(NC(=O)Nc3ccncc3)cc2)cc1` [Compound 262, (S)-6-AMINO-2-[4-(3-PYRIDIN-4-YL-UREIDO)-BENZYLAMINO]-HEXANOIC ACID P-TOLYLAMIDE], for which the EC50 in assay [1] is 2 to 0.5 μM; in assay [2] it was under 500 nM. On HCV RdRp (NS5B), the IC50 was under 10000 nM.

With `O=C(O)c1ccc2c(c1)nc(-c1ccccn1)n2C1CCCCC1`, the IC50 in assay [3] (setting [7]) is 69000 nM; in assay [4], 3500 nM; on HCV RdRp, 4360 nM. In assay [5], the “times less inhibition with the Replizyme enzyme than with the prepared enzyme” value is “about 20”.

In the case of `CCCCn1c(=O)c(C2=NS(=O)(=O)c3ccccc3N2)c(O)c2ccccc21`, the IC50 in assay [3] (setting [7]) was 1000 nM; in assay [4], 1800 nM; at HCV RdRp it was 240 nM.

Take `Cc1cc2cc(NC(=O)[C@H](CCNC(=O)CN)NC(=O)OCC3c4ccccc4-c4ccccc43)ccc2[nH]1` [Compound 237, (S)-[3-(2-AMINO-ACETYLAMINO)-1-(2-METHYL-1H-INDOL-5-YLCARBAMOYL)-PROPYL]-CARBAMIC ACID 9H-FLUOREN-9-YLMETHYL ESTER]: the EC50 in assay [1] (setting [6]) is over 2000 nM. The “Selectivity Index (CC50/EC50)” value in assay [1] was under 20. The compound further had an IC50 on HCV RdRp (NS5B) of under 10000 nM.

`NCCCCC[C@H](NC(=O)NCc1ccccc1)C(=O)Nc1ccc(C2CCCCC2)cc1` [Compound 120, (S)-7-AMINO-2-(3-BENZYL-UREIDO)-HEPTANOIC ACID (4-CYCLOHEXYL-PHENYL)-AMIDE]: in assay [1] (setting [6]), the EC50 is over 2000 nM. Moreover, the “Selectivity Index (CC50/EC50)” value in assay [1] was under 20. The same compound showed an IC50 on HCV RdRp (NS5B) of under 10000 nM.

Turning to `O=C(O)COc1ccc2[nH]cc(C[C@H](NC(=O)c3ccc4c(c3)nc(-c3ccoc3)n4C3CCCCC3)C(=O)O)c2c1`, the IC50 in assay [3] (setting [7]) was 1300 nM; in assay [4], 60 nM; at HCV RdRp, 1150 nM. The “times less inhibition with the Replizyme enzyme than with the prepared enzyme” value in assay [5] is recorded as “about 20”.

(Values after patent publication US20070021434A1, “NON-NUCLEOSIDE ANTI-HEPACIVIRUS AGENTS AND USES THEREOF” (Migenix Inc., priority 2005, published 2007).)
